# Measurements from patent US20120083464A1, “NEUROPROTECTIVE PROPERTIES OF 5'-METHYLTHIOADENOSINE” (priority 2009, published 2012).
# Entries after “also recorded” stand apart in the source; their conditions may differ.
# Tests used:
# isolated optic nerve = experiment: Simulated ischemia (OGD) in isolated optic nerves, LDH release; design: species or system Sprague Dawley rats; details: 1 h ischemia with iodoacetate + 2 h reperfusion; MTA 100-300 μM
# Protocol: Ischemic damage was induced by substituting […] and adding 1 mM of the glyocolytic blocker iodoacetate (1 mM) for 1 h followed by 2 h of reperfusion in […] aCSF. Optic nerves during ischemia and reperfusion were incubated with vehicle, for controls, and with MTA or glutamate receptor antagonists, and subsequently processed for LDH release assay. The results are the mean±SEM of at least three different experiments performed in duplicate.
# Cell viability in oligodendrocyte cultures was assayed after 24 h of exposure to MTA (1 μM to 3 mM) calcein-AM assays respectively followed by fluorimetry measurements (Synergy-HT). Oligodendrocyte protection from excitotoxicity and optic nerve damage after ischemia (1 hour+2 hours reperfusion) were examined using lactate dehydrogenase release assays in the presence or absence of MTA (100-300 μM for 3 hours).
# RN22 cells = experiment: Hydrogen peroxide stress in RN22 cells, MTT cell viability; format: cell-based, rat; details: hydrogen peroxide 100 μM, twenty-four hours; MTA 25 μM-3 mM
# Protocol: RN22 cells were maintained at 37° C. in DMEM medium supplemented with 10% of fetal bovine serum and penicillin/streptomycine. The assays against stress with copper sulphate were conducted using 24-well plates in DMEM medium without serum. After allowing cell adherence for three days, NGF (100 ng/ml) or MTA was added to different concentrations half an hour before the copper sulphate (150 μM). After twenty-four hours, cell viability was quantified by MTT assay and ROS production was quantified by fluorescence. Assays against stress with hydrogen peroxide were conducted in the same way as the foregoing, using 100 μM hydrogen peroxide as a stress-producing agent.
# We determined the quantity of MTT (Sigma) that is reduced to insoluble formazan. After separating the medium, the water-insoluble formazan is solubilised in DMSO and the dissolved material is measured in a spectrophotometer at 570 nm.
# [1] = system: pure rat cortical neuronal culture; experiment: NMDA-mediated toxicity (LDH release) in pure neuronal culture; format: cell-based, Sprague-Dawley rat; details: NMDA 300 μM, MTA 100 to 500 μM
# Protocol: Primary cultures of brain cortical neurons were essentially prepared as described previously (Bruno et al., 2001, Eur. J. Neurosci., 13:1469-1478). The fronto-lateral cortical lobes were dissected out of Sprague-Dawley embryonic day 17 foetuses and were mechanically dissociated in Hanks' balanced solution. The cortical lobes were triturated by aspirating 7-10 times using a Pasteur pipette with a flame-narrowed tip. After centrifugation at 800 g for 5 min, cells were resuspended in serum-free Neurobasal medium (GIBCO) supplemented with B27 (GIBCO) containing 2 mM L-glutamine, penicillin (20 units/ml) and streptomycin (5 μg/ml) and plated on poly-L-lysine-coated 24-well culture plates or on poly-L-lysine-coated 6-well culture plates. […]
# For viability experiments, cortical neurons or mixed cortical neurons and glia, seeded onto 24-well plates at 15×10^4 cells/well and cultured for 7 DIV, were treated with vehicle (DMSO 1‰), NMDA (300 μM), NMDA (300 μM)+MTA (at different concentrations) or NMDA (300 μM)+MK-801 (10 μM) for 6 h and 24 h. […] Lactate dehydrogenase (LDH) activity was measured as an index of cellular death and mortality was expressed as percentage of LDH released to culture media. LDH was measured spectrophotometrically at 490 nm on a 96-well plate reader by using the Cytotox 96 Kit according to the manufacturer instructions (Promega). […]
# [2] = system: oligodendrocytes derived from the optic nerve; experiment: MTA toxicity profile in cultured oligodendrocytes (calcein-AM); format: cell-based; details: MTA 1 μM-3 mM for 24 hours
# Protocol: Primary cultures of oligodendrocytes derived from optic nerves of 12-d-old Sprague Dawley rats were obtained as described previously (Barres et al., 1992). Cells were seeded into 24-well plates bearing 12-mm-diameter coverslips coated with poly-D-lysine (10 μg/ml) at a density of 5×10^3 cells per well. Cells were maintained at 37° C. and 5% CO2 in a chemically defined medium (Barres et al., 1992, Cell 70:31-46). After 2-4 d in vitro, cultures were composed of at least 98% O4/galactocerebroside-positive (O4/Ga1C_) cells; the majority of the remaining cells were stained with antibodies to glial fibrillary acidic protein (GFAP). No A2B5+ or microglial cells were detected in these cultures (Alberdi et al., 2002, Neurobiol Dis 9:234-243).
# Cell toxicity and viability assays were performed as described previously (Sánchez-Gómez and Matute, 1999, Neurobiol Dis 6:475-485). For evaluating the MTA toxicity, cells at 2-4 d in culture were exposed for 24 hours to that drug and cell viability assessed using calcein-AM (Invitrogen). […] Twenty-four hours after drug application, cell viability was assessed using calcein-AM (Invitrogen). The total number of surviving cells on each coverslip emitting calcein fluorescence was counted, and results were expressed as percentage of cell death versus control. Results were expressed as the mean±SEM of at least three independent experiments performed in duplicate. […]
compound,measurement,setting,value
"CSC[C@H]1O[C@@H](n2cnc3c(N)ncnc32)[C@H](O)[C@@H]1O [MTA, 5′-methylthioadenosine]",OGD/ischemia-induced damage in isolated optic nerve (LDH release),isolated optic nerve,similarly protective
same,cell viability (MTT) under hydrogen peroxide stress,RN22 cells,capable of maintaining cell viability
same,effect on NMDA-mediated toxicity (LDH release),[1],no neuroprotective effect; also recorded: Lack of effect
same,MTA concentrations at which significant toxicity was observed (calcein-AM),[2],above 300 μM
